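Where inhibition never reached the appropriate level, the endpoint shown equals the highest concentration tested. Otherwise, values were interpolated linearly from a five-concentration, 48-hour dose response in 96-well plates. At the GI50, growth is halved.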 Activity calls are given as the source filed them. No stated cut-off is given here; in the data, active = GI50 up to about 1.1 µM and inactive = higher.
Legend:
Assay in all cases: growth of human tumour cells (NCI), 48 h
HT-29 = system: HT-29
EKVX = system: EKVX
Hs-578T = system: Hs-578T
OVCAR-5 = system: OVCAR-5
BT-549 = system: BT-549
KM-20L2 = system: KM-20L2
TK-10 = system: TK-10
T47D = system: T47D
DU-145 = system: DU-145
RPMI-8226 = system: RPMI-8226
LOX IMVI = system: LOX IMVI
IGROV-1 = system: IGROV-1
A549 = system: A549
NCI-H522 = system: NCI-H522
NCI-H460 = system: NCI-H460
MDA-MB-231 = system: MDA-MB-231
SK-MEL-28 = system: SK-MEL-28
COLO 205 = system: COLO 205
SNB-75 = system: SNB-75
SK-MEL-2 = system: SK-MEL-2
SK-OV-3 = system: SK-OV-3
HOP-62 = system: HOP-62
NCI-H226 = system: NCI-H226
SW-620 = system: SW-620
OVCAR-4 = system: OVCAR-4
MCF7 = system: MCF7
UACC-62 = system: UACC-62
SK-MEL-5 = system: SK-MEL-5
KM12 = system: KM12
HOP-92 = system: HOP-92
ACHN = system: ACHN
Malme-3M = system: Malme-3M
M14 = system: M14
NCI/ADR-RES = system: NCI/ADR-RES
UACC-257 = system: UACC-257
U-251 = system: U-251
CAKI-1 = system: CAKI-1
NCI-H23 = system: NCI-H23
CCRF-CEM = system: CCRF-CEM
786-0 = system: 786-0
MDA-N = system: MDA-N
SN12C = system: SN12C
UO-31 = system: UO-31
MOLT-4 = system: MOLT-4
HCC 2998 = system: HCC 2998
HCT-116 = system: HCT-116
SF-539 = system: SF-539
SF-268 = system: SF-268
A498 = system: A498
RXF 393 = system: RXF 393
MDA-MB-435 = system: MDA-MB-435
SF-295 = system: SF-295
OVCAR-8 = system: OVCAR-8
PC-3 = system: PC-3
HCT-15 = system: HCT-15
SR = system: SR
HL-60 = system: HL-60
SNB-19 = system: SNB-19
OVCAR-3 = system: OVCAR-3
K562 = system: K562

Question: Which results are given for `COc1ccc(/C=C\c2cc(OC)c(OC)c(OC)c2)cc1O` [COMBRETASTATIN A4]?
Answer: GI50 (HT-29): 1.72 µM (inactive); GI50 (EKVX): 1.22 µM (inactive); GI50 (Hs-578T): 0.583 µM (active); GI50 (OVCAR-5): 0.34 µM (active); GI50 (BT-549): > 10 µM (inactive); GI50 (KM-20L2): 1.61 µM (inactive); GI50 (TK-10): 0.204 µM (active); GI50 (T47D): 41 µM (inactive); GI50 (DU-145): 0.01 µM (active)

Question: Which results are given for `CCN(CC)/[N+]([O-])=N/OCOC(C)=O`?
Answer: GI50 (RPMI-8226): > 100 µM (inactive); GI50 (LOX IMVI): > 100 µM (inactive); GI50 (IGROV-1): > 100 µM (inactive); GI50 (A549): > 100 µM (inactive); GI50 (NCI-H522): > 100 µM (inactive); GI50 (NCI-H460): > 100 µM (inactive); GI50 (MDA-MB-231): > 100 µM (inactive); GI50 (HT-29): > 100 µM (inactive); GI50 (EKVX): > 100 µM (inactive); GI50 (SK-MEL-28): > 100 µM (inactive); GI50 (COLO 205): > 100 µM (inactive); GI50 (Hs-578T): > 100 µM (inactive); GI50 (SNB-75): > 100 µM (inactive); GI50 (SK-MEL-2): > 100 µM (inactive); GI50 (SK-OV-3): > 100 µM (inactive); GI50 (HOP-62): > 100 µM (inactive); GI50 (NCI-H226): > 100 µM (inactive); GI50 (SW-620): > 100 µM (inactive); GI50 (OVCAR-4): > 100 µM (inactive); GI50 (MCF7): > 100 µM (inactive); GI50 (UACC-62): > 100 µM (inactive); GI50 (SK-MEL-5): > 100 µM (inactive); GI50 (KM12): > 100 µM (inactive); GI50 (HOP-92): > 100 µM (inactive); GI50 (OVCAR-5): > 100 µM (inactive); GI50 (ACHN): > 100 µM (inactive); GI50 (Malme-3M): > 100 µM (inactive); GI50 (BT-549): > 100 µM (inactive); GI50 (M14): > 100 µM (inactive); GI50 (NCI/ADR-RES): > 100 µM (inactive); GI50 (UACC-257): > 100 µM (inactive); GI50 (U-251): > 100 µM (inactive); GI50 (TK-10): > 100 µM (inactive); GI50 (CAKI-1): > 100 µM (inactive); GI50 (NCI-H23): > 100 µM (inactive); GI50 (CCRF-CEM): 94.4 µM (inactive); GI50 (T47D): > 100 µM (inactive); GI50 (786-0): > 100 µM (inactive); GI50 (MDA-N): > 100 µM (inactive); GI50 (SN12C): > 100 µM (inactive); GI50 (UO-31): > 100 µM (inactive); GI50 (MOLT-4): > 100 µM (inactive); GI50 (HCC 2998): > 100 µM (inactive); GI50 (HCT-116): > 100 µM (inactive); GI50 (SF-539): > 100 µM (inactive); GI50 (SF-268): > 100 µM (inactive); GI50 (A498): > 100 µM (inactive); GI50 (RXF 393): > 100 µM (inactive); GI50 (MDA-MB-435): > 100 µM (inactive); GI50 (SF-295): > 100 µM (inactive); GI50 (OVCAR-8): > 100 µM (inactive); GI50 (PC-3): > 100 µM (inactive); GI50 (DU-145): > 100 µM (inactive); GI50 (HCT-15): > 100 µM; GI50 (SR): 43.4 µM (inactive); GI50 (HL-60): 65.9 µM (inactive); GI50 (SNB-19): > 100 µM (inactive); GI50 (OVCAR-3): > 100 µM (inactive); GI50 (K562): > 100 µM (inactive)

Question: With `NNC(=O)CC(=O)Nc1ccc(Cl)cc1` as the molecule, how does the GI50 (RPMI-8226) read?
Answer: > 100 µM (inactive)

Question: And the GI50 (LOX IMVI)?
Answer: 34.1 µM (inactive)

Question: What about the GI50 (IGROV-1) of the same molecule?
Answer: > 100 µM (inactive)

Question: What about the GI50 (A549) of the same molecule?
Answer: > 100 µM (inactive)

Question: What about the GI50 (NCI-H522) of the same molecule?
Answer: > 100 µM (inactive)

Question: And the GI50 (NCI-H460)?
Answer: > 100 µM (inactive)

Question: What about the GI50 (MDA-MB-231) of the same molecule?
Answer: > 100 µM (inactive)

Question: And the GI50 (HT-29)?
Answer: > 100 µM (inactive)

Question: And the GI50 (EKVX)?
Answer: > 100 µM (inactive)

Question: And the GI50 (SK-MEL-28)?
Answer: > 100 µM (inactive)

Question: And the GI50 (COLO 205)?
Answer: > 100 µM (inactive)

Question: And the GI50 (Hs-578T)?
Answer: > 100 µM (inactive)

Question: And the GI50 (SNB-75)?
Answer: > 100 µM (inactive)

Question: And the GI50 (SK-MEL-2)?
Answer: > 100 µM (inactive)

Question: What about the GI50 (SK-OV-3) of the same molecule?
Answer: > 100 µM (inactive)

Question: And the GI50 (HOP-62)?
Answer: > 100 µM (inactive)

Question: And the GI50 (NCI-H226)?
Answer: > 100 µM (inactive)

Question: And the GI50 (SW-620)?
Answer: > 100 µM (inactive)

Question: And the GI50 (OVCAR-4)?
Answer: > 100 µM (inactive)

Question: What about the GI50 (MCF7) of the same molecule?
Answer: > 100 µM (inactive)

Question: And the GI50 (UACC-62)?
Answer: > 100 µM (inactive)

Question: And the GI50 (SK-MEL-5)?
Answer: > 100 µM (inactive)

Question: And the GI50 (KM12)?
Answer: > 100 µM (inactive)

Question: And the GI50 (HOP-92)?
Answer: > 100 µM (inactive)

Question: What about the GI50 (OVCAR-5) of the same molecule?
Answer: > 100 µM (inactive)

Question: And the GI50 (ACHN)?
Answer: 66.7 µM (inactive)

Question: What about the GI50 (Malme-3M) of the same molecule?
Answer: > 100 µM (inactive)

Question: And the GI50 (BT-549)?
Answer: > 100 µM (inactive)

Question: What about the GI50 (NCI/ADR-RES) of the same molecule?
Answer: > 100 µM (inactive)

Question: What about the GI50 (UACC-257) of the same molecule?
Answer: > 100 µM (inactive)

Question: What about the GI50 (U-251) of the same molecule?
Answer: > 100 µM (inactive)

Question: What about the GI50 (TK-10) of the same molecule?
Answer: > 100 µM (inactive)

Question: And the GI50 (CAKI-1)?
Answer: > 100 µM (inactive)

Question: And the GI50 (NCI-H23)?
Answer: > 100 µM (inactive)

Question: What about the GI50 (CCRF-CEM) of the same molecule?
Answer: > 100 µM (inactive)

Question: And the GI50 (T47D)?
Answer: > 100 µM (inactive)

Question: What about the GI50 (786-0) of the same molecule?
Answer: > 100 µM (inactive)

Question: And the GI50 (MDA-N)?
Answer: > 100 µM (inactive)

Question: And the GI50 (SN12C)?
Answer: > 100 µM (inactive)

Question: And the GI50 (UO-31)?
Answer: > 100 µM (inactive)

Question: And the GI50 (MOLT-4)?
Answer: > 100 µM (inactive)

Question: And the GI50 (HCC 2998)?
Answer: > 100 µM (inactive)

Question: What about the GI50 (HCT-116) of the same molecule?
Answer: > 100 µM (inactive)

Question: And the GI50 (SF-539)?
Answer: > 100 µM (inactive)

Question: And the GI50 (SF-268)?
Answer: > 100 µM (inactive)

Question: What about the GI50 (A498) of the same molecule?
Answer: > 100 µM (inactive)

Question: And the GI50 (RXF 393)?
Answer: > 100 µM (inactive)

Question: And the GI50 (MDA-MB-435)?
Answer: > 100 µM (inactive)

Question: What about the GI50 (SF-295) of the same molecule?
Answer: > 100 µM (inactive)

Question: What about the GI50 (OVCAR-8) of the same molecule?
Answer: > 100 µM (inactive)

Question: What about the GI50 (PC-3) of the same molecule?
Answer: > 100 µM (inactive)

Question: And the GI50 (DU-145)?
Answer: > 100 µM (inactive)

Question: What about the GI50 (HCT-15) of the same molecule?
Answer: 34.7 µM

Question: What about the GI50 (SR) of the same molecule?
Answer: > 100 µM (inactive)

Question: What about the GI50 (HL-60) of the same molecule?
Answer: > 100 µM (inactive)

Question: And the GI50 (SNB-19)?
Answer: > 100 µM (inactive)

Question: And the GI50 (OVCAR-3)?
Answer: > 100 µM (inactive)

Question: And the GI50 (K562)?
Answer: 48.6 µM (inactive)

Source: ChEMBL document CHEMBL1201862, “PubChem BioAssay data set” (2004)
